In US7741245B2, “Method for treating plants or plant parts” (Rohm and Haas Company, priority 2004, dated 2010):

Test system: Patio variety tomato seedlings
Assay: Tomato Epinasty Test
Assay type: in vivo
Details: 1000 ppm v/v OCPO in air of sealed chamber; ethylene 10 ppm v/v injected four hours later; scored sixteen hours later
Experimental: The biological activity of OCPO was assessed with the Tomato Epinasty Test. Epinasty is downward bending of leaves. The test was performed as follows. Test plants are Patio variety tomato seedlings planted two plants per three inch square plastic pot. Volatile gas treatment entailed placing two pots of Patio variety tomatoes into a polystyrene 4.8 L volume treatment chamber along with one-half (upper or lower section) of a 50×9 mm plastic Petri dish containing a Gelman filter pad. OCPO, dissolved in 1.0 ml acetone, was pipetted onto the filter pad and the chamber was immediately sealed. The amount of OCPO was calculated to give concentration of 1000 ppm v/v of OCPO in the air of the sealed chamber. Four hours later ethylene gas was injected into the sealed chamber in an amount to give concentration of ethylene of 10 ppm v/v final concentration in the sealed chamber. Sixteen hours later the chambers were opened in an exhaust hood, allowed to air, and the plants scored visually for the degree of protection against ethylene-induced epinasty conferred by the experimental compound when compared to untreated controls on a scale of 0 to 10. A rating of 10 means complete protection. A rating of 0 means no protection from the effects of ethylene.

Question: For CCCCCCCCc1cc1=O [OCPO, 1-octylcycloprop-1-en-2-one], which “protection against ethylene-induced epinasty, visual rating on a scale of 0 to 10 (10 = complete protection, 0 = no protection)” value is on record?
Answer: 7
